SMILES strings stand for the structures.

The test system of test [1] is IGF-I proteolysis in H-59 and MCF-7 cell lysates. Put plainly: IGF-1 proteolysis assay, tumor cell lysates. Format: biochemical. How it is done: These preparations were incubated for various lengths of time at 37° C. with 10-^6 M unlabeled or 50,000 cpm [^125I]-labeled IGF-1 in 200 or 400 μl of 50 mM citrate-phosphate pH 5, respectively. The integrity of the radiolabeled ligand was assessed by precipitation with 10% trichloroacetic acid (Authier et al, 1995). To measure proteolysis of the unlabeled IGF-1, the samples were acidified with acetic acid (15%) and immediately loaded onto a reverse-phase HPLC column. Reverse-phase HPLC was performed on a Waters model 600 liquid chromatograph equipped with a model U6K sample injector fitted with a […] and a mBondapak C18 column (Waters, 0.39×30 cm, […]). Samples were chromatographed using as eluent a mixture of 0.1% TFA in water (solvent A) and 0.1% TFA in acetonitrile (solvent B) with a flow rate of 1 ml/min. Elution was carried out using two sequential linear gradients followed by an isocratic elution: an initial gradient of 0-20% solvent B (30 min); a second gradient of 20-39% solvent B (15 min); and a third isocratic elution of 39% solvent B (15 min). Eluates were monitored on-line for absorbance at 214 nm with a LC spectrophotometer.

The test system of another test is H-59 cells. Put plainly: IGF-I induced thymidine incorporation with E-64, H-59. Type of test: cell-based, murine. In general terms: Uptake of a labelled nucleoside into DNA is a usual measure of proliferation.
Test [2] deals with endosomal IGF-I proteolysis. Briefly: IGF-1 proteolysis assay, liver endosomal extract. Type of test: biochemical, rat. As to the method:
H-59 is a highly metastatic subline of the Lewis lung carcinoma with metastatic predilection for the liver, (Brodt et al 1986). Human breast carcinoma cell line MCF-7 was a gift from Dr. Mader (Dept of Biochemistry, University of Montreal, PQ, Canada). Endosomal fractions were prepared from livers of male Sprague-Dawley rats after an 18 h period of fasting. The livers were homogenized and the endosomal fractions isolated by discontinuous sucrose gradient centrifugation and collected at the 0.25 M to 1.0 M sucrose interface (20, 21, 24). The soluble extract (ENs) from the endosomal fractions was isolated by freeze/thawing in 5 mM Na-phosphate pH 7.4, and disrupted in the same hypotonic medium using a small Dounce homogenizer (15 strokes with the tight Type A pestle) followed by centrifugation at 300,000×gav for 30 min as described previously (20, 21, 24).
These preparations were incubated for various lengths of time at 37° C. with 10-^6 M unlabeled or 50,000 cpm [^125I]-labeled IGF-1 in 200 or 400 μl of 50 mM citrate-phosphate pH 5, respectively. The integrity of the radiolabeled ligand was assessed by precipitation with 10% trichloroacetic acid (Authier et al, 1995). […] Eluates were monitored on-line for absorbance at 214 nm with a LC spectrophotometer.

Another test deals with human IGF-I receptor. Put plainly: Fluorocytometry of cell surface IGF-1 receptors with mAb αIR3, MCF-7. Format: cell-based. How it is done: (§1) The ligand-binding assay and fluorocytometry were used to measure cell surface IGF-1 receptors on the murine H-59 and human MCF-7 cells, respectively. […] Incubation was for 1 h at 37° C. following which the cells were rinsed and lysed in 0.01 N NaOH containing 0.1% Triton X-100 and 0.1% SDS and the radioactivity measured. The number of cells/plate at the time of the assay was determined from triplicate control wells which were manipulated in a similar manner. The Ligand program (27, 28) was used to calculate the number of IGF-1 binding sites per cell. IGF-1 receptors on MCF-7 cells were immunofluorescence labeled using 5 μg/ml mAb αIR3 and an FITC-conjugated goat anti-mouse IgG (diluted 1:50). […] Labeled cells were fixed in PBS containing 1% formalin and analyzed using a FACS Calibur System (Becton-Dickinson, San Jose, Calif.).

The subject of test [3] is IGF-IR β subunit and substrates. Put plainly: Immunoprecipitation and anti-phosphotyrosine Western blot, MCF-7. Format: cell-based, human. How it is done: (§2) Cells were then washed with PBS, solubilized in 30 mM Hepes pH 7.4, 150 mM NaCl, 1% Triton X-100, and spun at maximal speed in a microfuge for 15 min. Cell lysates (1 to 3 mg) were then immunoprecipitated respectively with anti-Shc, anti-IRS-1 or anti-IGF-IR antibodies overnight at 4° C. Immunoprecipitates were collected by addition of Protein A-Sepharose beads, washed three times with lysis buffer and resuspended finally in Laemmli sample buffer (Long et al 1986a). Immunoprecipitates were resolved by SDS-PAGE and transferred onto nitrocellulose membranes followed by immunoblotting with anti-phosphotyrosine antibodies or with antibodies to IRS-1, Shc or IGF-1R followed by HRP—conjugated goat anti-mouse or goat anti-rabbit IgG antibodies.

In a further test the test system is MMP-2. Briefly: IGF-1-mediated induction of MMP-2 synthesis (Northern, Western, zymography). Type of test: cell-based, murine. From the text: This medium was replenished on alternate days for 12 days. […] Blots were probed with a 1:500 dilution of mAb Ab-45 to MMP-2 and an alkaline phosphatase conjugated affinity purified, goat anti rabbit IgG, diluted 1:2000. For Northern blotting, a ^32P-labeled 1.1-Kb human MMP-2 and an 800-bp rat cyclophilin cDNA fragment were used as hybridization probes.

Test [4] concerns IGF-I binding sites on H-59 cells. Briefly: Ligand-binding assay of cell surface IGF-1 receptors, H-59. Also noted: species or system murine. How it is done:
as §1

The next test deals with H-59 tumor cells. Conditions: in vivo; cited from earlier work.
The next test deals with MCF-7 cells. Briefly: IGF-I induced thymidine incorporation with E-64, MCF-7. Type of test: cell-based, human.
The next test concerns IGF-IR. Briefly: IGF-IR mRNA and total immunoprecipitable receptor levels. Conditions: H-59 and MCF-7. Type of test: cell-based. As to the method: as §2
The subject of test [5] is IGF-IR β subunit and substrates. Briefly: Immunoprecipitation and anti-phosphotyrosine Western blot, H-59. Format: cell-based, murine. How it is done: as §2
(In general: Immunoblotting shows a protein as a band on a membrane.)

In the case of `CC(C)C[C@H](NC(=O)[C@H]1O[C@@H]1C(=O)O)C(=O)NCCCCN=C(N)N` (relative stereo) [E-64, trans-epoxysuccinyl-L-leucylamido (4-guanidino)-butane], the “increase in TCA-soluble radioactivity over time (IGF-I proteolysis)” value in test [1] (cell lysates, radioiodinated IGF-I, 1 hr) was “completely abolished”; in [2] (endosomal fractions, radioiodinated IGF-I, 1 hr), “completely abolished”. Further, the “IGF-I degradation products by reverse phase HPLC” value in [1] (lysates of E-64-treated tumor cells, acidic pH) is given as “absent following E-64 treatment”; in test [2] (liver parenchymal endosomal fractions, acidic pH) it was “absent following E-64 treatment”. Also, the “incorporation of 3H-thymidine in response to IGF-I” value in the test with H-59 cells (H-59) and in the test on MCF-7 cells (MCF-7) was “completely abrogated” in each case. The IGF-I induced proliferation entry is listed as “abolished” in the test on H-59 cells (H-59, E-64 10 μg/ml) and “abolished” with MCF-7 cells (MCF-7, E-64 10 μg/ml). The “reduction in the number of immunolabeled cells” value with human IGF-I receptor (MCF-7, 40 min after addition of ligand) was 45%. The “mean intensity of fluorescence” value in the test with human IGF-I receptor (MCF-7, 40 min after addition of ligand (declining from 255)) came to 82. Besides, in [3], the “tyrosine phosphorylated IRS-1” value was “increase”. For the same compound, in the test on MMP-2 (H-59, E-64 10 μg/ml), the “reduction of MMP-2 mRNA synthesis” value came to 2 fold. In the test on MMP-2 (Western blotting and gelatin zymography, E-64 10 μg/ml), the “MMP-2 production and activity” value was “decreased MMP-2 production and activity”. Besides, the “number of IGF-I binding sites” value in test [4] (H-59, E-64 treated (untreated 3.9×10^5)) was 1.8×10^5 sites/cell. Further, the “reduction of the number of IGF-I binding sites” value in test [4] (H-59, E-64 treated vs untreated) was “more than 2 fold”. Also, the “liver colonization by H-59 tumor cells” value with H-59 tumor cells is given as “inhibited liver colonization”. Further, the “IGF-IR mRNA levels” value in the test with IGF-IR is reported as “In neither of these cell types did E-64 treatment cause a reduction”. Moreover, in [5], the “ligand-induced tyrosine phosphorylation of p52shc” value is on record as “increase”.
